The source made the active and inactive calls.
Key:
Caspase-3 = molecular target: T1, Caspase-3 (Homo sapiens, UniProt P42574); type: functional;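 note: Dose-response selectivity test against caspase-3 for candidate inhibitors of sentrin-specific proteases (SENPs)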
T1 sequence (P42574 whole entry): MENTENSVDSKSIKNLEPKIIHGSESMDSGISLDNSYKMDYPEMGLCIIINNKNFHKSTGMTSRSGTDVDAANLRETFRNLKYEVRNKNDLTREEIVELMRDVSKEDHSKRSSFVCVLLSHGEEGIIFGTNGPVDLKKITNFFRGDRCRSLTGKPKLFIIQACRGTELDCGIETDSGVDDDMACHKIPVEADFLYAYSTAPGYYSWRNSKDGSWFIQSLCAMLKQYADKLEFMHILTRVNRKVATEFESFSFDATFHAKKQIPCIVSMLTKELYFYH

[1] = molecular target: T2, Sentrin-specific protease 7 (Homo sapiens, UniProt Q9BQF6); type: functional;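 note: Luminescence-based dose-response confirmation of ultra-high-throughput screening hits, measuring inhibition of SENP7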
T2 sequence (Q9BQF6 whole entry): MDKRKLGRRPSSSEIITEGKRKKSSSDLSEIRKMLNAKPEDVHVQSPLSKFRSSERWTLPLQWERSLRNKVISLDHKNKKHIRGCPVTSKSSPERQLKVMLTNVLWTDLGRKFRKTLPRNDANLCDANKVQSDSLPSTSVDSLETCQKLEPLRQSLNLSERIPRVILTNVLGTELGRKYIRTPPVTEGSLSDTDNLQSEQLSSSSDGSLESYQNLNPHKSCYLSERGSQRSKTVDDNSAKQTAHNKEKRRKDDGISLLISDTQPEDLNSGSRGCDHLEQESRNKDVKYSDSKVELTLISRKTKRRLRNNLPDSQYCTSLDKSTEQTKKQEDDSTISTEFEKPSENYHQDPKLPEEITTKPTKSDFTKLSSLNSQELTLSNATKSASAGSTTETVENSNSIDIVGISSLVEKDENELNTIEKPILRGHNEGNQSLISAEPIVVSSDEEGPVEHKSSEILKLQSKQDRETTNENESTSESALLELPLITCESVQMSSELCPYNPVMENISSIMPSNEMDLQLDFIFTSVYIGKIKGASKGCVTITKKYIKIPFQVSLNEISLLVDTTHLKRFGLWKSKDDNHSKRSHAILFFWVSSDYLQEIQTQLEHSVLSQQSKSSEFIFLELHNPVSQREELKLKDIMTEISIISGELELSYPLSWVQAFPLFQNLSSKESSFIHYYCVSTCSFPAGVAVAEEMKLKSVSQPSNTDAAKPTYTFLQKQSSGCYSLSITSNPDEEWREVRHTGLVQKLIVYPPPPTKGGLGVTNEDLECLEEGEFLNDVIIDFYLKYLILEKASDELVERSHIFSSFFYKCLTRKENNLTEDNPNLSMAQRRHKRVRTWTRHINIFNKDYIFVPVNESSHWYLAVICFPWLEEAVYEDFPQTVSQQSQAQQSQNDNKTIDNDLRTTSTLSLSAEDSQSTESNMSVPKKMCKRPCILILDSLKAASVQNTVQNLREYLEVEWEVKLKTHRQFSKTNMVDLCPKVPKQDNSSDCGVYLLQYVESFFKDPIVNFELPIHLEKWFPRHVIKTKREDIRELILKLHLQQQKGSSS

[2] = molecular target: T3, Sentrin-specific protease 6 (Homo sapiens, UniProt Q9GZR1); type: functional;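 note: Luminescence-based dose-response confirmatory assay of SENP6 inhibition, following up an ultra-high-throughput screen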
T3 sequence (Q9GZR1 whole entry): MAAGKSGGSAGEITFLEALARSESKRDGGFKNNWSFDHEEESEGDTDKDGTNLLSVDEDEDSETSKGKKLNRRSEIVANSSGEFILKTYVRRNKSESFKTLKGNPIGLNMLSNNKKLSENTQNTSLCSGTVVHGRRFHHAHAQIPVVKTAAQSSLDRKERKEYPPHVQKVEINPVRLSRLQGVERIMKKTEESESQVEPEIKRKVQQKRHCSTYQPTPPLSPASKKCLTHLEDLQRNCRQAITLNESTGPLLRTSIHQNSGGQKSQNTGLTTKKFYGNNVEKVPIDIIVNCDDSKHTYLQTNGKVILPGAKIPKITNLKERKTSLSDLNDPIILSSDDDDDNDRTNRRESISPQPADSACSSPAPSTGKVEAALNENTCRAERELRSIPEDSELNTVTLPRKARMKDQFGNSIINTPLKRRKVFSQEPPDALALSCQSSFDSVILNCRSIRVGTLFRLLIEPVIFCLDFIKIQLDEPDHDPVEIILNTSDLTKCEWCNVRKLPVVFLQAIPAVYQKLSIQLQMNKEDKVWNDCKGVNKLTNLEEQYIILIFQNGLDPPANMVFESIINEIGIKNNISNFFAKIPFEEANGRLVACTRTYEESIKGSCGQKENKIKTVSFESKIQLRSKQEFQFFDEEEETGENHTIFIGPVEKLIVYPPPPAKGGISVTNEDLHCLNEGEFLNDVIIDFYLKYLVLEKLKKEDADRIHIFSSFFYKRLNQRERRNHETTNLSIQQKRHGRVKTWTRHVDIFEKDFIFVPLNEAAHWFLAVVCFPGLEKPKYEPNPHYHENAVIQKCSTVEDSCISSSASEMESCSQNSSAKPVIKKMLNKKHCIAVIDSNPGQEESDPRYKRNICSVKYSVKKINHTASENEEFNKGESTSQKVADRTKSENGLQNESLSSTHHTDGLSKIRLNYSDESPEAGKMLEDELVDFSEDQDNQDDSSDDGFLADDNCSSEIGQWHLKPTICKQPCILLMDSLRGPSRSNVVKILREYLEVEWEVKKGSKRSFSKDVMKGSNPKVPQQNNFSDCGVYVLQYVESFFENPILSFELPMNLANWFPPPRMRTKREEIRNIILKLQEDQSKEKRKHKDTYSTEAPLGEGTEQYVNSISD

[3] = molecular target: T4, Sentrin-specific protease 8 (Homo sapiens, UniProt Q96LD8); type: functional;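 note: luminescence read-out of SENP8 inhibition, dose-response confirmation following an ultra-high-throughput screen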
T4 sequence (Q96LD8 whole entry): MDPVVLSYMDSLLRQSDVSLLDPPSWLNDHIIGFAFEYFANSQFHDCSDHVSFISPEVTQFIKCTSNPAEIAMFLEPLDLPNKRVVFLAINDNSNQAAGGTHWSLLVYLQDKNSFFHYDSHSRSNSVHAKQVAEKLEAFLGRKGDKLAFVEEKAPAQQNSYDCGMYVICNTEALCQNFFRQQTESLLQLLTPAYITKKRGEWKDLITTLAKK

[4] = general cell-killing toxicity readout – plate reader, dry powder samples, cytotoxicity control for PAX8 inhibitor project, dose response (AID 743021); type: functional, cell-based
Paired box protein Pax-8 = Paired box protein Pax-8 (Homo sapiens, UniProt Q06710); experiment: PAX8 transcriptional activity inhibition in RMG-I – RMG-I cells, luciferase, cherry-pick, dose response (AID 687027); type: functional, cell-based;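 note: luciferase reporter driven by Pax8 target thyroperoxidase promoter measured by SteadyGlo luminescence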
[5] = molecular target: Peroxisome proliferator-activated receptor gamma/Nuclear receptor coactivator 1 (Homo sapiens, UniProt P37231); experiment: (§1) TR-FRET dose response biochemical High Throughput Screening assay for agonists of the steroid receptor coactivator 1 (SRC-1) recruitment by the peroxisome proliferator-activated receptor gamma (PPAR gamma): non-selective agonists. [Related pubchem assays (depositor defined):AID1300, AID1808, AID504735, AID631]; type: protein assay
[6] = molecular target: Peroxisome proliferator-activated receptor gamma/Nuclear receptor coactivator 3 (Homo sapiens, UniProt P37231); experiment: as §1, with “3 (SRC-3)” for “1 (SRC-1)”, “assays: 1301 (Confirmation screen.), 1048 (Primary screen.)]” for “assays (depositor defined):AID1300, AID1808, AID504735, AID631]”; type: functional
[7] = molecular target: Peroxisome proliferator-activated receptor gamma/Nuclear receptor coactivator 2 (Homo sapiens, UniProt P37231); experiment: TR-FRET dose response biochemical High Throughput Screening assay for agonists of the steroid receptor coactivator 2 (SRC-2) recruitment by the peroxisome proliferator-activated receptor gamma (PPAR gamma): non-selective agonists. [Related pubchem assays: 1297, 1032 ]; type: functional
Major prion protein = Major prion protein (Homo sapiens, UniProt P04156); type: functional, cell-based
[8] = molecular target: T5, Apoptotic protease-activating factor 1 (Homo sapiens, UniProt O14727); type: functional
T5 sequence (O14727 whole entry): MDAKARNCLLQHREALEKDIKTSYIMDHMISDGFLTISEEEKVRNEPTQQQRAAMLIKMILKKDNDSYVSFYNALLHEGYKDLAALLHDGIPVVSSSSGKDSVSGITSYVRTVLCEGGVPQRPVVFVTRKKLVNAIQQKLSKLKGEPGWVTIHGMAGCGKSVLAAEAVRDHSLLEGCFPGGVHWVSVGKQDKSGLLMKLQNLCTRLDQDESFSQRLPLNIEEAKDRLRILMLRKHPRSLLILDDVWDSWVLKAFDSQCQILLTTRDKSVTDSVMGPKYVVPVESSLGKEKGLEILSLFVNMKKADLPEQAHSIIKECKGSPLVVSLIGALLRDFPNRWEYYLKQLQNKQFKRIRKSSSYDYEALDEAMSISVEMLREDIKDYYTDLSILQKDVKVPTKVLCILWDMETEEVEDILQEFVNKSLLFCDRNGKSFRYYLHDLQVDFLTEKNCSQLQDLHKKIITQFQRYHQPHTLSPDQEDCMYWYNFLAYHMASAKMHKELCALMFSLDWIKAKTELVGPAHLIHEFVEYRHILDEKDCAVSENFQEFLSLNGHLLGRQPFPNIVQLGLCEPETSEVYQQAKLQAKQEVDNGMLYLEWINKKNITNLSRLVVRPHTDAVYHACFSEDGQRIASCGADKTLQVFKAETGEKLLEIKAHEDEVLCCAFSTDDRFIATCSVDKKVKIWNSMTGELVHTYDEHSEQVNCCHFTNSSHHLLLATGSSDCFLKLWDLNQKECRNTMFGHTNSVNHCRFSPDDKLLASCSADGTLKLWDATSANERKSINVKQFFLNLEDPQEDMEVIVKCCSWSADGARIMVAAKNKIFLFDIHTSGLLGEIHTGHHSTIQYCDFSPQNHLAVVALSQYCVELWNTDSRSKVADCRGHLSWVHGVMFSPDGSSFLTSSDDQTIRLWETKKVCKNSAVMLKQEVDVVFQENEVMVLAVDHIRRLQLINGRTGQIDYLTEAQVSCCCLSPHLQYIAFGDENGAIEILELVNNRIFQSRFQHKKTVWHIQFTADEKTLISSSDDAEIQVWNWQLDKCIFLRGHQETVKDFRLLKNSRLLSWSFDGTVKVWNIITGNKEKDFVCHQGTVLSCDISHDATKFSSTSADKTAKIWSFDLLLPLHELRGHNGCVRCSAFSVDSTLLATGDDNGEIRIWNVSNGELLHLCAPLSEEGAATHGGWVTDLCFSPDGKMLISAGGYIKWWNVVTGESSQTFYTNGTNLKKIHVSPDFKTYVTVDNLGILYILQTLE

[9] = blockers of HIV-1 envelope-mediated cell-cell fusion – cherry-pick, dose response (AID 652057); type: functional, cell-based
[10] = blockers of HIV-1 ZM109 envelope-driven cell-cell fusion – HeLa effector, CEM target cells, luciferase, cherry-pick, dose response (AID 652058); type: functional, cell-based;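 note: luciferase signal from HIV-1 Env mediated cell-cell fusion of effector and target cells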
[11] = HIV-1 AD8 envelope cell-cell fusion blockers – cherry-pick, dose response (AID 652062); type: functional, cell-based;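 note: luciferase signal from cell-cell fusion driven by HIV-1 clade B AD8 Env; potency is for inhibitors of fusion seen as a drop in luminescence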
[12] = off-target signal loss in HeLa-CEM21 co-culture – HeLa F-luc CTL cells, cherry-picked, counter-screen for HIV-1 Env fusion inhibitor project, dose response (AID 652040); type: functional, cell-based;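 note: potency for signal decrease marking cytotoxic or nonspecific inhibition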

**Q.** For `CC(C)OCCCNC1=C(Cl)C(=O)c2ccccc2C1=O`, which IC50 (Caspase-3) is on record?
**A.** The IC50 was 6.38 µM (active).

**Q.** And the IC50 [1]?
**A.** Its IC50 is 19.4 µM (active).

**Q.** And the IC50 [2]?
**A.** Its IC50 is 8.48 µM (active).

**Q.** And the IC50 [3]?
**A.** Its IC50 is 25.7 µM (active).

**Q.** Which results are given for `COc1ccc(Oc2ccc(/C=C/C(=O)c3cccc(OC)c3)cc2[N+](=O)[O-])cc1`?
**A.** AC50 [4]: 54.3 µM (active); AC50 (Paired box protein Pax-8): 14.5 µM (active)

**Q.** What does the source list for `CCOC(=O)c1cc(-c2cc3ccccc3o2)[nH]n1`?
**A.** IC50 (Caspase-3): 15.4 µM (active); IC50 [1]: 5.55 µM (active); IC50 [2]: 21.6 µM (active); IC50 [3]: 34.8 µM (active)

**Q.** Which results are given for `CCCCNC(=O)CSc1nc(CCC)nc2ccccc12`?
**A.** IC50 (cells): > 138 µM (inactive); EC50 [5]: > 79.4 µM (inactive); EC50 [6]: > 79.4 µM (not active); EC50 [7]: > 79.4 µM (not active); IC50 (Major prion protein): 14.7 µM (inactive)

**Q.** With `O=C(O)c1ccc(NC2=C(N3CCOCC3)C(=O)c3ccccc3C2=O)cc1` as the molecule, how does the IC50 [8] read?
**A.** The IC50 was 35.8 µM (active).

**Q.** With `Clc1ccccc1OCc1nn2c(-c3ccncc3)nnc2s1` as the molecule, how does the IC50 [8] read?
**A.** Its IC50 is 8.4 µM (active).

**Q.** Which results are given for `CC(C)CCN(C(=O)c1csnn1)C(C(=O)NC1CCCC1)c1ccc(F)cc1` (centres undefined)?
**A.** AC50 [9]: 4.72 µM (active); AC50 [10]: 7.51 µM (active); AC50 [11]: 5.93 µM (active); AC50 [12]: 5.56 µM (active)

**Q.** With `COc1cc(CNCc2ccc(OC)c3ccccc23)cc(OC)c1OC` as the molecule, how does the AC50 [9] read?
**A.** Its AC50 is 23.8 µM (active).

**Q.** What about the AC50 [10] of the same molecule?
**A.** The AC50 was 31.8 µM (active).

**Q.** What about the AC50 [11] of the same molecule?
**A.** Its AC50 is 51 µM (active).

**Q.** And the AC50 [12]?
**A.** Its AC50 is > 70 µM (inactive).

**Q.** Which AC50 [4] does the source give for `COC(=O)C1=C(C)N(Cc2ccc(C(F)(F)F)cc2)C(NCc2ccccc2)=NC1c1cccc(Cl)c1` (centres undefined) here?
**A.** Its AC50 is 20.9 µM (active).

**Q.** What about the AC50 (Paired box protein Pax-8) of the same molecule?
**A.** The AC50 was 12.3 µM (active).

**Q.** Which AC50 [4] does the source give for `COc1cccc(N(C(=O)c2ccco2)c2nc(-c3sc(NC(=O)c4ccco4)nc3C)cs2)c1` here?
**A.** The AC50 was 62 µM (active).

**Q.** What about the AC50 (Paired box protein Pax-8) of the same molecule?
**A.** Its AC50 is 2.1 µM (active).
